Data as given in ChEMBL document CHEMBL1139461, “Synthesis and characterization of the novel fluorescent prolyl oligopeptidase inhibitor 4-fluoresceinthiocarbamoyl-6-aminocaproyl-L-prolyl-2(S)-(hydroxyacetyl)pyrrolidine” (J Med Chem, 2005).

Biological target: Prolyl endopeptidase (Sus scrofa, UniProt P23687)
Test: Inhibition of pig brain POP

Sequence of Prolyl endopeptidase (P23687 whole entry): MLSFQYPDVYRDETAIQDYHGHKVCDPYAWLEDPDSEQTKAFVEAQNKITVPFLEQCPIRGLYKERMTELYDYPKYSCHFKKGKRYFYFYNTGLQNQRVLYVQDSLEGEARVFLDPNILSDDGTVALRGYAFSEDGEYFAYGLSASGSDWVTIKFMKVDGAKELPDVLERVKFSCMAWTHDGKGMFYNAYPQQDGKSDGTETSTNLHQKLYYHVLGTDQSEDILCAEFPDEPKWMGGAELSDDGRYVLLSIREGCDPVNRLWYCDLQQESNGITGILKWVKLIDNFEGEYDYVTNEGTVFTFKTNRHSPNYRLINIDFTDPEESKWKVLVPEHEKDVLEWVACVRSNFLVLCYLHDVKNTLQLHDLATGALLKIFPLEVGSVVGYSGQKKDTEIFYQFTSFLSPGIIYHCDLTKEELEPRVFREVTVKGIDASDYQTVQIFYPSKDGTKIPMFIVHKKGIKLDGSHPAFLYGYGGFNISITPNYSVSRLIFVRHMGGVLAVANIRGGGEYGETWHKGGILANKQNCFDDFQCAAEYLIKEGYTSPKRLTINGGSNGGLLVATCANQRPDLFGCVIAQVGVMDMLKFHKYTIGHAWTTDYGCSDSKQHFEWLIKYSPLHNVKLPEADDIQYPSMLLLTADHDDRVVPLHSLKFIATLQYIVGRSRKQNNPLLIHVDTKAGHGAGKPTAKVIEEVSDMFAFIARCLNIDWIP

IC50	SMILES
180 nM	O=C1OC2(c3ccc(O)cc3Oc3cc(O)ccc32)c2ccc(NC(=S)NCC(=O)N3CCC[C@H]3C(=O)N3CCC[C@H]3C(=O)CO)cc21
0.83 nM	O=C1OC2(c3ccc(O)cc3Oc3cc(O)ccc32)c2ccc(NC(=S)NCCCCCC(=O)N3CCC[C@H]3C(=O)N3CCC[C@H]3C(=O)CO)cc21
